Data from PubChem BioAssay (NCI).
Where “and” joins values, the source holds several entries; their conditions need not be identical. Equal values may be shown once.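 Following 48 hours of exposure in 96-well plates, responses at five concentrations were used to interpolate endpoints linearly. The concentration for 50% growth inhibition is given as GI50. At the TGI there is no net growth.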

Assays:
Experiment in all cases: inhibition of tumour cell growth, NCI panel, 48 h
[1] = tested on: DU-145 prostate
[2] = tested on: MCF7 breast
[3] = tested on: NCI/ADR-RES ovarian
[4] = tested on: SK-MEL-2 melanoma
[5] = tested on: TK-10 renal
[6] = tested on: T-47D breast

SMILES	GI50 [1]	TGI [1]	GI50 [2]	TGI [2]	GI50 [3]	TGI [3]	GI50 [4]	TGI [4]	GI50 [5]	TGI [5]	TGI [6]	GI50 [6]
COc1c(N2CCN(CN3C(=O)C(=Nc4ccc(S(=O)(=O)Nc5ncccn5)cc4)c4ccccc43)C(C)C2)c(F)cc2c(=O)c(C(=O)O)cn(C3CC3)c12 (stereo unspecified)	11.2 µM	35.2 µM	16.5 µM	> 50 µM	23.2 µM	> 50 µM	20 µM	> 50 µM	11.9 µM	43.7 µM		
O=NNc1nc(-c2cccnc2)nc2ccccc12		> 100 µM		> 100 µM		> 100 µM				> 100 µM	> 100 µM	
Fc1cccc(COc2ccc(Nc3ncnc4cc(-c5ccc[nH]5)sc34)cc2Cl)c1	3.34 µM	> 16.4 µM	0.0802 µM	2.76 µM	3.29 µM	> 25 µM	6.77 µM	> 25 µM	0.482 µM	2.64 µM	7.35 µM	0.0977 µM
COc1cc(-c2cn(-c3ccc(Cl)cc3)c(C)c2C(=O)C(F)(F)F)cc(OC)c1OC	> 100 µM	> 100 µM	24.6 µM	> 100 µM	> 100 µM	> 100 µM	> 100 µM	> 100 µM	> 100 µM	> 100 µM	> 100 µM	6.95 µM
COc1ccc(-c2cncn2-c2ccc(OC)cc2)cc1	14.9 µM	32.5 µM	17.4 µM	41.2 µM	19.3 µM	42.9 µM	17.9 µM	42.9 µM	17.4 µM	41.9 µM		
OCc1ccc(-c2nn(Cc3ccccc3)c3ccccc23)o1	16.6 µM and 17.8 µM	36.9 µM and 43.8 µM	4.08 µM and 1.69 µM	24.8 µM and 57.1 µM	19.2 µM and 11.5 µM	67.1 µM and 49.6 µM	16.6 µM and 30.7 µM	32.6 µM and > 100 µM	0.253 µM and 0.489 µM	1.02 µM and 3.61 µM	43.4 µM and 26.2 µM	11.1 µM and 12.4 µM
O=C1C(Cl)=C(Nc2cccc(O)c2)C(=O)N1c1cc(Cl)c(Cl)cc1Cl	17.4 µM	39.3 µM	20.3 µM	54.7 µM	24.9 µM	55.7 µM	15 µM	29.6 µM	23.8 µM	48.6 µM	> 100 µM	42.1 µM
COC(=O)CNC(=O)[C@@H](OC)[C@@H]1Cc2cc3cc(OC4CC(OC5CC(O)C(O)C(C)O5)C(O)C(C)O4)c(C)c(O)c3c(O)c2C(=O)[C@H]1OC1CC(OC2CC(OC3CC(C)(O)C(O)C(C)O3)C(O)C(C)O2)C(O)C(C)O1 (stereo partly specified)	0.208 µM	> 50 µM	0.0546 µM	> 50 µM	48.5 µM	> 50 µM	0.147 µM	0.712 µM	0.402 µM	> 50 µM	> 50 µM	0.256 µM
CCCCN(Cc1ccc(F)cc1)c1ccc(CO)c(Cl)c1	17 µM	31.3 µM	2.3 µM	15 µM	14.1 µM	29.3 µM	14.5 µM	29.9 µM	0.319 µM	1.89 µM	10.2 µM	1.27 µM
C=C1C(=O)O[C@H]2[C@H]1CC/C(COC(=O)N1CCC[C@H]1C(=O)Nc1ccc(OC)c(C(N)=O)c1O)=C\CC[C@@]1(C)O[C@@H]21	3.95 µM	14.5 µM	2.38 µM	9.55 µM	61 µM	> 100 µM	6.58 µM	34.4 µM	1.92 µM	7.16 µM	6.7 µM	2.42 µM
Cn1ccnc1C(=O)/C=C/c1ccc(CC(=O)Nc2ccccc2)cc1	1.1 µM	4.03 µM	1.13 µM	10.3 µM	7.54 µM	> 25 µM	5.06 µM	13.3 µM	7.44 µM	19.9 µM	> 25 µM	5.23 µM
C=C(C)C(=O)O[C@H]1[C@H]2[C@H](OC(=O)[C@H]2C)[C@H](O)[C@@H](C)[C@@H]2C=CC(=O)[C@]21C		12.9 µM		15.5 µM		9.61 µM		18.4 µM		8.09 µM	12.5 µM	
C=C1CC[C@@H]2[C@](C)(COC(C)=O)[C@H](OC(C)=O)CC[C@@]2(C)[C@@H]1CC(Nc1ccc(S(=O)(=O)Nc2nccc(C)n2)cc1)C1=CCOC1=O (stereo partly specified)	3.36 µM	11.8 µM	2.27 µM	12.5 µM	2.94 µM	13.5 µM	6.01 µM	20 µM	4.94 µM	15.8 µM	8.33 µM	2.77 µM
Fc1ccc2[nH]c3c(NCCCN4CCOCC4)ncnc3c2c1	88 µM	> 100 µM	41.5 µM	> 100 µM	> 100 µM	> 100 µM	52 µM	> 100 µM	66.4 µM	> 100 µM	> 100 µM	35.7 µM
CC(=O)OCC1OC(n2ccc(=O)[nH]c2=O)C(OC(C)=O)C1OC(C)=O (stereo unspecified)	> 100 µM	> 100 µM	> 100 µM	> 100 µM	> 100 µM	> 100 µM	> 100 µM	> 100 µM	> 100 µM	> 100 µM	> 100 µM	> 100 µM
CCc1cc(O)c(Cl)c(C)c1Cl		31.2 µM		61.6 µM		50.1 µM		> 100 µM		35.9 µM	> 100 µM	
C[C@@H]1COCCN1c1cc(C2(S(C)(=N)=O)CC2)nc(-c2ccnc3[nH]ccc23)n1 (stereo partly specified)	3.06 µM	> 100 µM	0.528 µM	70.2 µM	23.3 µM	88.8 µM	4.59 µM	18.9 µM	8.51 µM	51 µM	19.5 µM	3.15 µM
CO/N=C(\C)c1ccc(Nc2cc(-c3ccccc3)nc3c(O)cccc23)cc1	14.1 µM	32 µM			14.5 µM	30.8 µM	28 µM	> 100 µM			27.8 µM	9.07 µM
CC(=O)[O-].CC(=O)[O-].[NH2-].[Pt+2].c1ccc2cnccc2c1	12.2 µM	64.2 µM	11.3 µM	42.8 µM	64.4 µM	> 100 µM	36 µM	> 100 µM	15.5 µM	90.7 µM	24.7 µM	1.61 µM
CC(CNC(Cc1ccccc1)c1ccccc1)NC(Cc1ccccc1)c1ccccc1 (stereo unspecified)	3.95 µM	14.7 µM	2.08 µM	5.16 µM	1.83 µM	4.17 µM	2.18 µM	4.28 µM	3.22 µM	12.5 µM	4.95 µM	1.96 µM
CC1OC2CC(=O)OC2C2=C1C(=O)c1c(O)c3c(c(O)c1C2=O)C1CC(O)C3(O)C(C)O1 (stereo unspecified)	1.38 µM	2.69 µM	0.126 µM	0.366 µM	0.273 µM	0.917 µM	0.701 µM	2.26 µM	0.302 µM	1.12 µM	1.55 µM	0.336 µM
O=C1/C(=C/c2ccc(O)cc2)COc2ccc(-c3ccccc3)cc21	4.09 µM	14.6 µM	2.8 µM	12.4 µM	10.9 µM	53.9 µM	16.8 µM	39 µM	2.98 µM	11.9 µM	25.6 µM	3.76 µM
O=C(CCl)N1c2ccccc2Sc2c1ccc1ccccc21	3.32 µM	10.8 µM	2.52 µM	6.47 µM	2.74 µM	6.55 µM	17.4 µM	32.9 µM	3.86 µM	11.5 µM	6.07 µM	2.19 µM
CN(C)c1ccc2cc(-c3ccccc3F)c(N)nc2c1	3.09 µM	13.2 µM	0.431 µM	14.4 µM	1.06 µM	12.3 µM	2.05 µM	15 µM	3.83 µM	16.2 µM	13.6 µM	1.26 µM
CN(CCOc1ccc(C#N)cc1)CCOc1ccc(C#N)cc1	90 µM	> 100 µM	> 100 µM	> 100 µM	43.8 µM	> 100 µM			28.7 µM	> 100 µM	> 100 µM	> 100 µM
COc1ccc(-c2cn(-c3ccccc3)c(-c3ccccc3)n2)cc1OC	2.9 µM	7.92 µM	2.72 µM	13.1 µM	4.01 µM	30.2 µM	7.06 µM	22.5 µM	12.2 µM	26.1 µM	20.2 µM	1.75 µM
Cc1ccc(C(O)c2cnc(C)n2Cc2ccccc2)cc1 (stereo unspecified)		> 100 µM		> 100 µM		> 100 µM		> 100 µM		> 100 µM		
Cc1nc2sc(C(=O)Nc3ccccc3)c(N)c2cc1C(=O)/C=C/c1ccccc1	1.81 µM	3.6 µM	1.53 µM	5.51 µM			3.37 µM	14.6 µM	2.3 µM	6.39 µM	8.2 µM	2.48 µM
NC(C(=O)[O-])C(=O)[O-].NC1CCCCC1N.[Pt+4]			1.71 µM	5.49 µM	4.41 µM	> 100 µM	> 100 µM	> 100 µM	3.1 µM	8.61 µM		
